Measurements published in patent US7189736B2, “Prodrugs of imidazopyridine derivatives” (Altana Pharma AG, priority 2000, dated 2007).

System: not given
Experiment: not given
Conditions: not given

First: CO[C@@H]1c2ccn3c(C)c(C)nc3c2N[C@H](c2ccccc2)[C@H]1OC(=O)c1ccccc1 [Example 10, (7R,8R,9R)-8-Benzoyloxy-7-methoxy-2,3-dimethyl-9-phenyl-7,8,9,10-tetrahydro-imidazo[1,2-h][1,7]naphthyridine]
Second: CO[C@H]1c2ccn3c(C)c(C)nc3c2N[C@H](c2ccccc2)[C@H]1OC(=O)c1ccccc1 [Example 11, (7S,8R,9R)-8-Benzoyloxy-7-methoxy-2,3-dimethyl-9-phenyl-7,8,9,10-tetrahydro-imidazo[1,2-h][1,7]naphthyridine]
The melting point of the first is higher: 82 to 84 °C for the first, 78 to 80 °C for the second.

Compared with `CCC(=O)O[C@@H]1[C@@H](c2ccccc2)Nc2c(ccn3c(C)c(C)nc23)[C@H]1OCCOC` [Example 5, (7R,8R,9R)-7-(2-Methoxyethoxy)-2,3-dimethyl-9-phenyl-8-propionyloxy-7,8,9,10-tetrahydroimidazo[1,2-h][1,7]naphthyridine], `COCCO[C@H]1c2ccn3c(C)c(C)nc3c2N[C@H](c2ccccc2)[C@H]1OC(=O)CN(C)C` [Example 21, (7S,8R,9R)-7-(2-Methoxyethoxy)-2,3-dimethyl-8-(N,N-dimethylaminomethyl-carbonyloxy)-9-phenyl-7,8,9,10-tetrahydroimidazo[1,2-h][1,7]naphthyridine] is higher in melting point: 106 to 107 °C for the first, 206 to 207 °C for the second.

First: COCCO[C@@H]1c2ccn3c(C)c(C)nc3c2N[C@H](c2ccccc2)[C@H]1OC(=O)c1ccc([N+](=O)[O-])cc1 [Example 12, (7R,8R,9R)-7-(2-Methoxyethoxy)-2,3-dimethyl-8-(4-nitrobenzoyloxy)-9-phenyl-7,8,9,10-tetrahydroimidazo[1,2-h][1,7]naphthyridine]
Second: COCCO[C@H]1c2ccn3c(C)c(C)nc3c2N[C@H](c2ccccc2)[C@H]1OC(=O)c1ccc(OC)cc1 [Example 18, (7S,8R,9R)-7-(2-Methoxyethoxy)-2,3-dimethyl-8-(4-methoxybenzoyloxy)-9-phenyl-7,8,9,10-tetrahydroimidazo[1,2-h][1,7]naphthyridine]
The melting point of the first is higher: 133 to 134 °C for the first, 82 to 83 °C for the second.

Compared with `CCO[C@@H]1c2ccn3c(C)c(C)nc3c2N[C@H](c2ccccc2)[C@H]1OC(C)=O` [Example 4, (7R,8R,9R)8-Acetoxy-7-ethoxy-2,3-dimethyl-9-phenyl-7,8,9,10-tetrahydroimidazo-[1,2-h][1,7]naphthyridine], `CO[C@@H]1c2ccn3c(C)c(C)nc3c2N[C@H](c2ccccc2)[C@H]1OC(C)=O` [Example 3, (7R,8R,9R)-8-Acetoxy-7-methoxy-2,3-dimethyl-9-phenyl-7,8,9,10-tetrahydro-imidazo[1,2-h][1,7]naphthyridine] is higher in melting point: 182 to 184 °C for the first, 197 to 199 °C for the second.

First: CCN(CC)C(=O)O[C@@H]1[C@@H](c2ccccc2)Nc2c(ccn3c(C)c(C)nc23)[C@H]1OC [Example 41, (7R,8R,9R)8-(N,N-Diethylaminocarbonyloxy)-2,3-dimethyl-7-methoxy-9-phenyl 7,8,9,10-tetrahydroimidazo[1,2-h][1,7]naphthyridine]
Second: CCN(CC)C(=O)O[C@@H]1[C@@H](c2ccccc2)Nc2c(ccn3c(C)c(C)nc23)[C@@H]1OC [Example 42, (7S,8R,9R)8-(N,N-Diethylaminocarbonyloxy)-2,3-dimethyl-7-methoxy-9-phenyl 7,8,9,10-tetrahydroimidazo[1,2-h][1,7]naphthyridine]
The melting point of the first is higher: 123 to 124 °C for the first, 97 to 98 °C for the second.

First: CCN(CC)C(=O)O[C@@H]1[C@@H](c2ccccc2)Nc2c(ccn3c(C)c(C)nc23)[C@@H]1OCCOC [Example 22, (7S,8R,9R)-7-(2-Methoxyethoxy)-8-(N,N-diethylaminocarbonyloxy)-2,3-dimethyl-9-phenyl-7,8,9,10-tetrahydroimidazo[1,2-h][1,7]naphthyridine]
Second: COCCO[C@@H]1c2ccn3c(C)c(C)nc3c2N[C@H](c2ccccc2)[C@H]1OC(=O)CN(C)C [Example 20, (7R,8R,9R)-7-(2-Methoxyethoxy)-2,3-dimethyl-8-(N,N-dimethylaminomethyl-carbonyloxy)-9-phenyl-7,8,9,10-tetrahydroimidazo[1,2-h][1,7]naphthyridine]
The melting point of the first is lower: 50 to 52 °C for the first, 114 to 115 °C for the second.

First: COC(=O)O[C@@H]1[C@@H](c2ccccc2)Nc2c(ccn3c(C)c(C)nc23)[C@H]1OC [Example 43, (7R,8R,9R)7-Methoxy-8-methoxycarbonyloxy-2,3-dimethyl-9-phenyl 7,8,9,10-tetrahydroimidazo[1,2-h][1,7]naphthyridine]
Second: COC(=O)O[C@@H]1[C@@H](c2ccccc2)Nc2c(ccn3c(C)c(C)nc23)[C@@H]1OC [Example 44, (7S,8R,9R)7-Methoxy-8-methoxycarbonyloxy-2,3-dimethyl-9-phenyl 7,8,9,10-tetrahydroimidazo[1,2-h][1,7]naphthyridine]
The melting point of the first is higher: 178 to 179 °C for the first, 90 to 91 °C for the second.

First: COCCO[C@@H]1c2ccn3c(C)c(C)nc3c2N[C@H](c2ccccc2)[C@H]1OC(=O)OC [Example 8, (7R,8R,9R)-8-Methoxycarbonyloxy-7-(2-methoxyethoxy)-2,3-dimethyl-9-phenyl-7,8,9,10-tetrahydroimidazo[1,2-h][1,7]naphthyridine]
Second: COCC(=O)O[C@@H]1[C@@H](c2ccccc2)Nc2c(ccn3c(C)c(C)nc23)[C@@H]1OC [Example 40, (7S,8R,9R)-2,3-Dimethyl-7-methoxy-8-methoxyacetyloxy-9-phenyl-7,8,9,10-tetrahydroimidazo[1,2-h][1,7]naphthyridine]
The melting point of the first is higher: 176 to 177 °C for the first, 73 to 75 °C for the second.

First: CO[C@@H]1c2ccn3c(C)c(C)nc3c2N[C@H](c2ccccc2)[C@H]1OC(=O)c1ccccc1 [Example 47, (7R,8R,9R)-8-Benzoyloxy-2,3-dimethyl-7-methoxy-9-phenyl-7,8,9,10-tetrahydro-imidazo[1,2-h][1,7]naphthyridine]
Second: COCCO[C@H]1c2ccn3c(C)c(C)nc3c2N[C@H](c2ccccc2)[C@H]1OC(=O)c1ccccc1 [Example 7, (7S,8R,9R)-8-Benzoyloxy-7-(2-methoxyethoxy)-2,3-dimethyl-9-phenyl-7,8,9,10tetrahydroimidazo[1,2-h][1,7]naphthyridine]
The melting point of the first is higher: 92 to 93 °C for the first, 78 to 80 °C for the second.

Compared with `COCCO[C@@H]1c2ccn3c(C)c(C)nc3c2N[C@H](c2ccccc2)[C@H]1OC(=O)c1ccc(OC)cc1` [Example 19, (7R,8R,9R)-7-(2-Methoxyethoxy)-2,3-dimethyl-8-(4-methoxybenzoyloxy)-9-phenyl-7,8,9,10-tetrahydroimidazo[1,2-h][1,7]naphthyridine], `CO[C@@H]1c2ccn3c(C)c(C)nc3c2N[C@H](c2ccccc2)[C@H]1OC(=O)c1cccc([N+](=O)[O-])c1` [Example 17, (7R,8R,9R)-7-Methoxy-2,3-dimethyl-8-(3-nitrobenzoyloxy)-9-phenyl-7,8,9,10-tetra-hydroimidazo[1,2-h][1,7]naphthyridine] is lower in melting point: 150 to 151 °C for the first, 80 to 84 °C for the second.

First: CO[C@@H]1c2ccn3c(C)c(C)nc3c2N[C@H](c2ccccc2)[C@H]1OC=O [Example 45, (7R,8R,9R)-2,3-Dimethyl-8-formyloxy-7-methoxy-9-phenyl-7,8,9,10-tetrahydro-imidazo[1,2-h][1,7]naphthyridine]
Second: COCCO[C@@H]1c2ccn3c(C)c(C)nc3c2N[C@H](c2ccccc2)[C@H]1OC(=O)OC1CC(C)CCC1C(C)C (stereo partly drawn) [Example 26, (7R,8R,9R)-8-[(+)-Menthyloxycarbonyloxy]-7-(2-methoxyethoxy)-2,3-dimethyl-9-phenyl-7,8,9,10-tetrahydroimidazo[1,2-h][1,7]naphthyridine]
The melting point of the first is higher: 152 to 153 °C for the first, 127 to 129 °C for the second.

In the case of `COCCO[C@H]1c2ccn3c(C)c(C)nc3c2N[C@H](c2ccccc2)[C@H]1OC(=O)OC1CC(C)CCC1C(C)C` (stereo partly drawn) [Example 27, (7S,8R,9R)-8-[(+)-Menthyloxycarbonyloxy]-7-(2-methoxyethoxy)-2,3-dimethyl-9-phenyl-7,8,9,10-tetrahydroimidazo[1,2-h][1,7]naphthyridine], the melting point was 63 to 65 °C.

System: acid secretion of the perfused rat stomach stimulated by pentagastrin
Experiment: Secretion-inhibiting action on perfused rat stomach (pentagastrin-stimulated acid secretion)
Assay type: in vivo
Conditions: Rattus norvegicus, iv, anesthetized CD rats, female, dose 3 μmol/kg i.v.
Text: Testing of the Secretion-inhibiting Action on Perfused Rat Stomach
In table A below, the influence of the compounds according to the invention after intravenous administration is shown on the acid secretion of the perfused rat stomach stimulated by pentagastrin.
The abdomen of anesthetized rats (CD rats, female, 200–250 g; 1.5 g/kg of i.m. urethane) was opened after tracheotomy by a median upper abdominal incision and a PVC catheter was fixed transorally in the esophagus and a further one via the pylorus such that the ends of the tubing just still projected into the gastric lumen. The catheter leading from the pylorus led outwards via a side opening in the right abdominal wall.
After thorough rinsing (about 50–100 ml), a continuous flow of warm physiological NaCl solution (0.5 ml/min, pH 6.8–6.9; Braun-Unita I) was continuously passed through the stomach at 37° C. The pH in the effluent, in each case collected at an interval of 15 minutes, was determined (pH meter 632, glass electrode EA 147; φ 5 mm, Metrohm) and the secreted HCl was determined by titration with a freshly prepared 0.01N NaOH solution to pH 7 (Dosimat 665 Metrohm).
Gastric secretion was stimulated by continuous infusion of 1 μg/kg (=1.65 ml/h) of i.v. pentagastrin (left femoral vein) about 30 min after the end of the operation (i.e. after determination of 2 preliminary fractions). The substances to be tested were administered intravenously in 1 ml/kg of fluid volume 60 min after the start of the pentagastrin continuous infusion.
The body temperature of the animals was kept at a constant 37.8–38° C. by means of infrared irradiation and heating pads (automatic, step-free control via a rectal temperature sensor).

In order of rising inhibition at 3 µmol/kg:
1. COCCO[C@H]1c2ccn3c(C)c(C)nc3c2N[C@H](c2ccccc2)[C@H]1OC(C)=O [Example 1, (7S,8R,9R)-8-Acetoxy-7-(2-methoxyethoxy)-2,3-dimethyl-9-phenyl-7,8,9,10-tetra-hydroimidazo[1,2-h][1,7]naphthyridine]  100%
2. CO[C@@H]1c2ccn3c(C)c(C)nc3c2N[C@H](c2ccccc2)[C@H]1OC(C)=O [Example 3, (7R,8R,9R)-8-Acetoxy-7-methoxy-2,3-dimethyl-9-phenyl-7,8,9,10-tetrahydro-imidazo[1,2-h][1,7]naphthyridine]  100%

Same assay, conditions: anesthetized CD rats, female, dose 3 μmol/kg i.v.

In the case of `COCCO[C@@H]1c2ccn3c(C)c(C)nc3c2N[C@H](c2ccccc2)[C@H]1OC(C)=O` [Example 2, (7R,8R,9R)-8-Acetoxy-7-(2-methoxyethoxy)-2,3-dimethyl-9-phenyl-7,8,9,1,0-tetra-hydroimidazo[1,2-h][1,7]naphthyridine], the “Inhibition of acid secretion (%)” value was 100%.
